This note sets out measurements from a melting point compilation (Tetko et al.).

Non-standard residues stand in square brackets, D forms with d. Residues, ends and D or L forms follow the SMILES beside them. ξ: configuration not given here. *: point of attachment. X1 = COC1=CC(=O)N(C(=O)C(O*)C(C)C)C1Cc1ccccc1; ξNMe2Val = CC(C)C(C(=O)*)N(C)C; NMeV = CN[CH](C(=O)O)C(C)C

For `CCN(C(=O)OC(C)(C)C)C(=NC(=O)OC(C)(C)C)N1CCN(C(=O)[C@@H]2CCCN2S(=O)(=O)c2ccc(Cl)c(COc3cccc4ccc(C)nc34)c2Cl)CC1`, the melting point came out at 95 °C.

The compound `CCCCc1nc2c(N)nc3ccccc3c2n1CCCCNC(=O)Nc1ccc(Oc2ccc(NC(=O)NCCCCn3c(CCCC)nc4c(N)nc5ccccc5c43)cc2)cc1` yielded a melting point of 152 to 156 °C.

In turn, `CC(C)CC1C(=O)OC(Cc2ccccc2)C(=O)N(C)C(CC(C)C)C(=O)OC(C)CN(C)C(CC(C)C)C(=O)OC(Cc2ccccc2)C(=O)N(C)C(CC(C)C)C(=O)OC(C)CN1C` (stereo unspecified) came in with a melting point of 130 to 132 °C.

`[C-]#[N+]CCC(O)COc1ccc(C(C)(C)C)cc1` (stereo unspecified) came in with a melting point of 69 to 72 °C. The result for `CCNC(=O)[C@@H]1CCCN1C(=O)[C@H](CCCNC(=N)N)NC(=O)[C@H](CC(C)C)NC(=O)[C@@H](Cc1ccc2ccccc2c1)NC(=O)[C@H](Cc1ccc(O)cc1)NC(=O)[C@H](CO)NC(=O)[C@H](Cc1c[nH]c2ccccc12)NC(=O)[C@H](Cc1c[nH]cn1)NC(=O)[C@@H]1CCC(=O)N1` reads 180 to 190 °C; that for `CC(C)(O)C(=O)c1ccc(C(OC(=O)c2ccc(C(=O)OC(c3ccc(C(=O)C(C)(C)O)cc3)c3ccc(C(=O)C(C)(C)O)cc3)cc2)c2ccc(C(=O)C(C)(C)O)cc2)cc1`, 102 °C; that for `CCOCc1nc2c(N)nc3cc(-c4cccnc4)ccc3c2n1CC1CCN(C(=O)C2CCCO2)CC1` (stereo unspecified), 191 to 192 °C. The result for `CC(C)(O)CCOc1c(-c2ccc(S(N)(=O)=O)cc2)cnn(-c2ccc(F)cc2)c1=O` reads 163 to 164 °C. The result for `CCCCCCCCCCCCC=CCCC(Cl)CC1CC(=O)N(N(c2ccccc2)c2[nH]n(-c3c(Cl)cc(Cl)cc3Cl)c(=O)c2OC(=O)c2cc([N+](=O)[O-])ccc2N)C1=O` (stereo unspecified) reads 118 to 121 °C. Compound `O=S(=O)(C(/C=C/c1ccc(I)cc1)c1ccc(Cl)cc1Cl)C(/C=C/c1ccc(I)cc1)c1ccc(Cl)cc1Cl` (stereo unspecified) showed a melting point of 181 to 182 °C.

For the compound `O=C(OCCCCCCOC1CCCCO1)c1ccc(Oc2c3c(c(Oc4ccc(C(=O)OCCCCCCOC5CCCCO5)cc4)c4ccccc24)C(=O)c2ccccc2C3=O)cc1` (stereo unspecified), the melting point lay in the range of 114 to 117 °C. For `O=C(O)Cc1cc(I)c(Oc2cc(I)c(OCC3CO3)c(I)c2)c(I)c1` (stereo unspecified), the melting point was determined as 176 °C. Regarding `CS(=O)(=O)N1CC=C(C#Cc2ccc3c(c2)NC(=O)CC(c2cccc(C#N)c2)=N3)CC1`, the melting point is 235 °C. In turn, `C=CC(=O)NCNC(=O)C=C` showed a melting point of 185 °C.

As for `C=CC1=C(C)c2cc3[nH]c(cc4nc(cc5[nH]c(cc1n2)c(C)c5CCC(=O)OC(CN(C)C)CN(C)C)C(CCC(=O)OC(CN(C)C)CN(C)C)=C4C)c(C)c3C=C`, the melting point lay within 181 to 190 °C. Take `Ic1cc(NC2=NCCN2)cc2[nH]cnc12`: the melting point was 180 to 181 °C. In the case of `CCCCCCCCCS(=O)(=O)c1c(S(=O)(=O)CCCCCCCCC)c(S(=O)(=O)CCCCCCCCC)c(S(=O)(=O)CCCCCCCCC)c(S(=O)(=O)CCCCCCCCC)c1S(=O)(=O)CCCCCCCCC`, the melting point is 95 °C. For `CC(=O)c1cc2cc(Br)ccc2oc1=O`, the melting point is 227 °C. With `Brc1cc(Br)c(Oc2nc(Oc3c(Br)cc(Br)cc3Br)nc(Oc3c(Br)cc(Br)cc3Br)n2)c(Br)c1`, the melting point was 215 to 218 °C. `COC1=CC(=O)N(C(=O)C(OC(=O)C2CCCN2C(=O)C2CCCN2C(=O)C(C(C)C)N(C)C(=O)C(NC(=O)C(C(C)C)N(C)C)C(C)C)C(C)C)C1Cc1ccccc1` (stereo unspecified) (ξNMe2Val-V[NMeV]PP-X1; configuration not given here): the melting point fell in the range of 143 to 148 °C.

`CCOC(=O)c1cn(C23CC(C2)C3)c2c(F)c(F)c(F)cc2c1=O` gave a melting point of 176 to 178 °C. Compound `CCc1c(CC[Si](Cl)(Cl)Cl)c(CC[Si](Cl)(Cl)Cl)c(CC[Si](Cl)(Cl)Cl)c(CC[Si](Cl)(Cl)Cl)c1CC[Si](Cl)(Cl)Cl` showed a melting point of 195 to 198 °C.

Turning to `CC(=O)OCC1OC(n2cc(C3=C(c4cn(S(=O)(=O)c5ccccc5)c5ncccc45)C(=O)N(COCc4ccccc4)C3=O)c3cccnc32)C(OC(C)=O)C(OC(C)=O)C1OC(C)=O` (stereo unspecified), the melting point fell in the range of 108 to 110 °C. In turn, `O=C(NCC(O)CO)c1c(I)c(C(=O)NCC(O)CO)c(I)c(N(CCCN(C(=O)CO)c2c(I)c(C(=O)NCC(O)CO)c(I)c(C(=O)NCC(O)CO)c2I)C(=O)CO)c1I` (stereo unspecified) gave a melting point of 234 to 236 °C. For `CN(C)c1ccccn1` the value was 0 °C; for `Cc1c(SCCN2CCOCC2)ccnc1CSc1nc2ccccc2n1CC(=O)N(C)C`, 178 to 180 °C.
